Data reported in the supplement of paper PMC11208160.

Assay: recombinant barcode read abundance after kanamycin selection (control-corrected) (log10(CPM+1)); higher = more efficient recombination; sequences stand for … in AGTGCAGAGAAAATCGGCCAGTTTTCTCTGCCTGCAGTCCGCATGCCGT…AGATTTATGCAGCGGACTGCCTTTCTCCCAAAGTGATAAACCGGACAGTATCATGGACCGGTTTTCCCGGTAATCCGTATTTGCAAGGTTGGTTTCACT; site = the 11-nt target
In short: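 Recombination efficiency in this pooled E. coli screen uses counts per million of barcodes at recombinant junctions, averaged and corrected against the control. The reported form is log10(CPM+1). Two replicates were plated on chloramphenicol/ampicillin LB agar as control and two on chloramphenicol/ampicillin/kanamycin with 0.1 mM IPTG.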
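Note: IS621 recombinase and bridge RNA in Escherichia coli cells.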

Sequence | recombinant barcode read abundance (log10)
TCCGAGACTTGGGTTCTAACCTGTTGCCG (site TCCGAGACTCG) | 1.93
TCCGAGACTTGGGTTCTAACCTGTTGCCG (site TCCGAGACTGG) | 0.0458
TCCGAGACTTGGGTTCTAACCTGTTGCCG (site TCCGAGACTTG) | 0.0796
TCCGATTCTTGGGTTCTAACCTGTTGCGT (site GCCTATTCTAC) | 0.19
TCCGATTCTTGGGTTCTAACCTGTTGCGT (site TCCGATTCTAC) | 1.7
TCCGCTACTTGGGTTCTAACCTGTTGCCT (site TCCGCTACTAG) | 0.0438
TCCGCTACTTGGGTTCTAACCTGTTGCCT (site TCCGCTCCTAG) | 0.0689
TCCGCTACTTGGGTTCTAACCTGTTGCCT (site TCCGCTGCTAG) | 0.0537
TCCGCTACTTGGGTTCTAACCTGTTGCCT (site TCCGCTTCTAG) | 0.107
TCCGCTTCTTGGGTTCTAACCTGTTGCCT (site TCCGCTACTAG) | 0.321
TCCGCTTCTTGGGTTCTAACCTGTTGCCT (site TCCGCTCCTAG) | 0.259
TCCGCTTCTTGGGTTCTAACCTGTTGCCT (site TCCGCTGCTAG) | 0.0858
TCCGCTTCTTGGGTTCTAACCTGTTGCCT (site TCCGCTTCTAG) | 0.487
TCCGCTTCTTGGGTTCTAACCTGTTGCTT (site AATCGAGCTCC) | 0.0408
TCCGCTTCTTGGGTTCTAACCTGTTGCTT (site TCCGCTTCTAA) | 0.0659
TCCGGTACTTGGGTTCTAACCTGTTGCTT (site TCCAGTACTAA) | 0.0783
TCCGGTACTTGGGTTCTAACCTGTTGCTT (site TCCGGTACTAA) | 0.438
TCCTAACCTTGGGTTCTAACCTGTTGCCT (site TCCTAACCTAG) | 0.454
TCCTAACCTTGGGTTCTAACCTGTTGCCT (site TCCTAATCTAT) | 0.0117
TCCTAAGCTTGGGTTCTAACCTGTTGCGG (site TCCTAAGCTCC) | 1.67
TCCTAAGCTTGGGTTCTAACCTGTTGCGG (site TGCTAAGCTCA) | 0.276
TCCTAAGCTTGGGTTCTAACCTGTTGCTA (site TCCAAAGCTTA) | 0.05

Sequence | recombinant barcode read abundance (log10)
TCCTAAGCTTGGGTTCTAACCTGTTGCTA (site TCCCAAGCTTA) | 0.227
TCCTAAGCTTGGGTTCTAACCTGTTGCTA (site TCCGAAGCTTA) | 0.372
TCCTAAGCTTGGGTTCTAACCTGTTGCTA (site TCCTAAGCTTA) | 0.161
TCCTAATCTTGGGTTCTAACCTGTTGCTT (site CGGGCTACTTG) | 0.284
TCCTAATCTTGGGTTCTAACCTGTTGCTT (site TCCTAATCTAA) | 0.111
TCCTATCCTTGGGTTCTAACCTGTTGCGA (site GTGGGAACTAA) | 0.0465
TCCTATCCTTGGGTTCTAACCTGTTGCGA (site TCCTATCCTTC) | 0.513
TCCTATGCTTGGGTTCTAACCTGTTGCCG (site GAAAGCTCTAC) | 0.0567
TCCTATGCTTGGGTTCTAACCTGTTGCCG (site TCCTATGCTCG) | 0.444
TCCTCGTCTTGGGTTCTAACCTGTTGCCT (site GCCTGGTCTAG) | 0.00881
TCCTCGTCTTGGGTTCTAACCTGTTGCCT (site TCCTCGTCTAG) | 0.669
TCCTGTACTTGGGTTCTAACCTGTTGCCT (site TCCTGTACTAG) | 0.239
TCCTGTACTTGGGTTCTAACCTGTTGCCT (site TCCTGTCCTAT) | 0.108
TCCTTAGCTTGGGTTCTAACCTGTTGCCG (site TCCTGAGCTCA) | 0.155
TCCTTAGCTTGGGTTCTAACCTGTTGCCG (site TCCTTAGCTCG) | 0.0503
TCGAACCCTTGGGTTCTAACCTGTTGCGG (site TCAAACCCTCC) | 0.991
TCGAACCCTTGGGTTCTAACCTGTTGCGG (site TCCAACCCTCC) | 0.168
TCGAACCCTTGGGTTCTAACCTGTTGCGG (site TCGAACCCTCC) | 0.851
TCGAACCCTTGGGTTCTAACCTGTTGCGG (site TCTAACCCTCC) | 0.0521
TCGAAGCCTTGGGTTCTAACCTGTTGCCT (site TCGAAACCTAG) | 0.0823
TCGAAGCCTTGGGTTCTAACCTGTTGCCT (site TCGAACCCTAG) | 0.207
TCGAAGCCTTGGGTTCTAACCTGTTGCCT (site TCGAAGCCTAG) | 0.324

Sequence | recombinant barcode read abundance (log10)
TCGAAGCCTTGGGTTCTAACCTGTTGCCT (site TCGAATCCTAG) | 0.101
TCGAATTCTTGGGTTCTAACCTGTTGCCT (site TCGAATTCTAG) | 0.109
TCGAATTCTTGGGTTCTAACCTGTTGCCT (site TCGATGTCTAG) | 0.0943
TCGAGAGCTTGGGTTCTAACCTGTTGCCG (site TCGAGAGCTCG) | 0.441
TCGAGAGCTTGGGTTCTAACCTGTTGCCG (site TCGAGAGCTTA) | 0.203
TCGAGTCCTTGGGTTCTAACCTGTTGCCT (site TCGAGTACTAG) | 0.766
TCGAGTCCTTGGGTTCTAACCTGTTGCCT (site TCGAGTCCTAG) | 0.101
TCGAGTCCTTGGGTTCTAACCTGTTGCCT (site TCGAGTGCTAG) | 0.179
TCGAGTCCTTGGGTTCTAACCTGTTGCCT (site TCGAGTTCTAG) | 0.0383
TCGAGTTCTTGGGTTCTAACCTGTTGCCT (site TCGAGTACTAG) | 0.0829
TCGAGTTCTTGGGTTCTAACCTGTTGCCT (site TCGAGTCCTAG) | 0.0637
TCGAGTTCTTGGGTTCTAACCTGTTGCCT (site TCGAGTGCTAG) | 0.0736
TCGAGTTCTTGGGTTCTAACCTGTTGCCT (site TCGAGTTCTAG) | 0.174
TCGCACACTTGGGTTCTAACCTGTTGCTA (site TCGCACACTTA) | 0.148
TCGCACACTTGGGTTCTAACCTGTTGCTA (site TCGCACTCTTA) | 0.0853
TCGCCTGCTTGGGTTCTAACCTGTTGCCT (site TCGCCTACTAG) | 0.282
TCGCCTGCTTGGGTTCTAACCTGTTGCCT (site TCGCCTGCTAG) | 0.191
TCGCTAACTTGGGTTCTAACCTGTTGCCT (site GCGCTAACTAG) | 0.145
TCGCTAACTTGGGTTCTAACCTGTTGCCT (site TCGCTAACTAG) | 0.322
TCGGACCCTTGGGTTCTAACCTGTTGCGA (site TCGAACCCTTC) | 1
TCGGACCCTTGGGTTCTAACCTGTTGCGA (site TCGCACCCTTC) | 0.12
TCGGACCCTTGGGTTCTAACCTGTTGCGA (site TCGGACCCTTC) | 2.73
